Experimental data: BindingDB's records for doi:10.1073/pnas.0609757104 (University of Central Florida College of Medicine, 2007)

Biological target: T1, Signal transducer and activator of transcription 1-alpha/beta (Homo sapiens, UniProt P42224)
T1 sequence (P42224 whole entry): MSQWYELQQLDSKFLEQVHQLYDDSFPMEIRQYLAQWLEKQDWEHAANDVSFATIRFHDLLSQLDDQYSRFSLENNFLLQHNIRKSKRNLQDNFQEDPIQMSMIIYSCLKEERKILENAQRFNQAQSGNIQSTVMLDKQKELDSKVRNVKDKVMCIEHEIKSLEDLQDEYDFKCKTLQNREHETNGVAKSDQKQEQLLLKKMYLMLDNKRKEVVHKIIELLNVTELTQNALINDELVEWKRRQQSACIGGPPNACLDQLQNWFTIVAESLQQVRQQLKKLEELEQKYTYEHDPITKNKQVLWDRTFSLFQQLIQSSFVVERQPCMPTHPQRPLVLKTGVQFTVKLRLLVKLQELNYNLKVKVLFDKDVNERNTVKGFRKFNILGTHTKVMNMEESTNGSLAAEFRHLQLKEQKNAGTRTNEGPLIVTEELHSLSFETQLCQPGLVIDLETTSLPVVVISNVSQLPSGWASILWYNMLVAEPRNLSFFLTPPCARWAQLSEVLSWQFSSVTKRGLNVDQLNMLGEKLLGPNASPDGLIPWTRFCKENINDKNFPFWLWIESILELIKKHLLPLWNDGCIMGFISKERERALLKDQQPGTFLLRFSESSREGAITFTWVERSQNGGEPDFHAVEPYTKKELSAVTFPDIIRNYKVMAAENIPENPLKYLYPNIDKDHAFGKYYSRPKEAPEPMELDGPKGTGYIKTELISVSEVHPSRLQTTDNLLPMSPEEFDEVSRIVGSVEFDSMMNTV
Test: Electrophoretic Mobility Shift Assay (EMSA)
Settings: pH 7.8; 22 °C
Description: STAT proteins were expressed in Sf9 cells from a baculovirus encoding the recombinant protein. A nuclear extract of the Sf9 cells was incubated with 32P-labeled high affinity c-fos sis inducible element (hSIE) either alone or in the presence of inhibitor. After incubation, samples were electrophoresed on polyacrylamide gels. The gels were dried, exposed to a phosphorimager screen and scanned. IC50 values were derived from plots of spot intensity versus phosphopeptide concentration. The affinity of peptides to the SH2 domain is measured by the intensity of the radioactivity of the Stat-DNA complex band in the electrophoresis gel.

IC50: > 300 µM
Structure (SMILES): Cc1ccc(S(=O)(=O)OCC(=O)Nc2ccc(C(=O)O)c(O)c2)cc1 [2-hydroxy-4-(2-{[(4-methylbenzene)sulfonyl]oxy}acetamido)benzoic acid]
